Common to all, as to assay: CTG (CellTiter-Glo) screening assay
Holding throughout (assay type): cell-based
Background: In ATP-based viability assays light output follows the ATP content of the culture.

In one assay the test system is T47-D. The settings on record: Homo sapiens, T47D. The text has this: (§1) Identification of tumor types that are the most sensitive to the KSP inhibitors of the present invention can be accomplished using an unbiased approach that uses several cell-based assays. The assays chosen were as follows: • CellTiter-Glo®. This is an assay designed to measure ATP concentration in a cell culture, and can be correlated to cell number. Briefly CellTiter-Glo® (Promega Corporation) is a homogeneous method using the single CellTiter-Glo® reagent to detect ATP wherein ATP in the assay drives the activity of a thermostable luciferase to create a luminescent signal which can then be measured and correlated with the number of viable cells. Briefly, for adherent cells, 1,000 to 5,000 cells/well were plated in 96-well plates (100 μl/well) and let to adhere for 24 hours before being treated with drug. For non-adherent cells, 1,000 to 10,000 cells/well were plated in 96-well plates (100 μl/well) and immediately treated with drug. Drug dilutions were prepared in DMSO at 1000 times the final concentration. These dilutions were then diluted 1/100 in growth media before being added to the cells (11 μl/well) to achieve the desired final concentration. After 48 h in a 37° C. tissue culture incubator, the plates were processed for the CellTiter-Glo®assay according to the manufacturer's instructions. Protocol for a 72 hour cell proliferation assay: The 72 hour assay was performed the same way as the 48 hour assay except for the following modifications: For adherent cells, 500 to 5,000 cells/well were plated in 96-well plates (90 μl/well cell growth media) and left to adhere for 24 hours before being treated with drug. For non-adherent cells, 1,000 to 10,000 cells/well were plated in 96-well plates (90 μl/well cell growth media) and immediately treated with drug. Data values presented represent the concentration of test compound required for a 50% reduction in growth. • LDH release. The Cytotoxicity Detection KitPLUS (LDH) assay (Roche Diagnostics, Manheim, Germany) measures the amount of LDH released in the media by dying cells; LDH catalyzes the conversion of lactate into pyruvate. The enzymatic reaction is coupled to a chemical reaction that uses a tetrazolium salt to form a formazan that is red and can be detected by its absorbance at 490 nm. This assay measures the amount of cell death after drug treatment. Cells were plated at 10,000 cells/well in 96-well plates (100 μl/well). Adherent cells were let to adhere for 24 hours before being treated with drug, whereas non-adherent cells were immediately treated with drug. Drug dilutions were prepared in DMSO at 1000 times the final concentration. These dilutions were then diluted 1/100 in growth media before being added to the cells (11 μl/well) to achieve the desired final concentration. After 48 h in a 37° C. tissue culture incubator, the plates were processed for the Cytotoxicity Detection KitPLUS (LDH) assay according to the manufacturer's instructions. The media only values were subtracted from all the data points before analysis. Data values presented correspond to the compound concentration wherein LDH output is at half maximal level. • Caspase-Glo® 3/7. The Caspase-Glo® 3/7 Assay (Promega Corporation) is a homogeneous luminescent assay that measures caspase-3/7 activities. The assay provides a proluminescent caspase-3/7 DEVD-aminoluciferin substrate and a thermostable luciferase in a reagent optimized for caspase-3/7 activity, luciferase activity and cell lysis. Adding the single Caspase-Glo® 3/7 Reagent results in cell lysis, followed by caspase cleavage of the substrate. This liberates free aminoluciferin, which is consumed by the luciferase, generating a luminescent signal. The signal is proportional to caspase-3/7 activity. Data values presented correspond to the compound concentration wherein caspase 3/7 activity is at half maximal level.

The next assay relates to HT29. The note with it: Homo sapiens, HT-29.
Excerpt: as §1

For the next assay, the system named is Colo-205. The note with it: Homo sapiens.
Excerpt: as §1

Another assay deals with MV4; 11. The settings on record: Homo sapiens.
Excerpt: as §1

As for `CC(C)(C)[C@H](c1nc(-c2cc(F)ccc2F)cn1Cc1ccccc1)N(CC[C@H](N)CF)C(=O)CO` [Compound IIa], the GI50 in the assay on T47-D (24 h) was more than 5 nM; in the assay with T47-D (48 h), more than 5 nM; in the assay on T47-D (72 h), 0.45 nM; in the assay with HT29 (HT29, 24 h) it was more than 5 nM; with HT29 (HT29, 48 h), more than 5 nM; in the assay with HT29 (HT29, 72 h) it was 0.21 nM. Further, the GI50 in the assay on Colo-205 (Colo-205, 24 h) is more than 5 nM; in the assay with Colo-205 (Colo-205, 48 h), 0.18 nM; in the assay with Colo-205 (Colo-205, 72 h) it was 0.19 nM; in the assay with MV4; 11 (MV4;11, 24 h), 0.05 nM; in the assay with MV4; 11 (MV4;11, 48 h), 0.04 nM; with MV4; 11 (MV4;11, 72 h), 0.04 nM.

One may read the GI50 as the concentration that inhibits growth by half. Read a high GI50 as less potent growth inhibition.

The record behind these values is patent publication US8252832B2, “Kinesin inhibitors as cancer therapeutics” (Novartis AG, priority 2007, dated 2012).
